Experimental data as given in US7879835B2 (Korea Research Institute of Chemical Technology, priority 2004, dated 2011).
Like-named read-outs stand apart in the source and are kept apart here.

Experiments:
[1] = system: osteoclast (TRAP-positive multinuclear cell) formation; test: Inhibitory effect on osteoclast formation (TRAP staining); type: cell-based, mice; conditions: Mus musculus, Osteoclast, compared to control, read-out: Osteoclast formation inhibitory effects (%)
How it was run: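 Non-adherent bone marrow cells from 7–9-week-old female mice, 2×10^5 per well, cultured 8 days with M-CSF (20 ng/ml), RANKL (30 ng/ml) and compound at 0.3, 1.0 or 3 μM. Formation scored by TRAP staining after fixation, 1 h at 37 °C, pH 5.0.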

osteoclasts = test: Inhibitory effect on resorption activity of osteoclast (resorption pit area on calcium phosphate-coated plate); type: cell-based, mice; conditions: compared to control
Experimental: After finishing culture, the plate was washed with distilled water, and 50 μl/well of 5% sodium hypochlorite was added to the plate. The plate was let alone for 5 min, washed again with distilled water to remove the adherent cells, and dried at room temperature. Then, the area of formed resorption pits was calculated by means of Image Pro Plus software (Media Cybernetics Ver. 3.0).

rats = test: In vivo acute toxicity test (LD50); conditions: single dose, 2 weeks observation
Experimental: In order to determine the acute toxicities of the compounds prepared in Examples, 6-week old specific pathogen-free (SPF) rats each weighing […] were divided into groups of 10 rat each.
In case of subcutaneous administration, each of the compounds was dissolved in 5% PEG400 solution to a concentration of 20 mg/ml, the resulting solution was serially diluted with 5% PEG400 solution to concentrations of 5, 2.5, 1.25 and 0.625 mg/ml, and the dilutions were subcutaneously injected once to the rats at a dose of 10 ml/kg body weight.
In case of oral administration, each of the compounds was dissolved in soybean oil to a concentration of 180 mg/ml, the resulting solution was serially diluted with soybean oil to concentrations of 80, 20 and 5 mg/ml, and the dilutions were orally administered once to the rats at a dose of 20 ml/kg body weight. […]
During 2 weeks after the administration of the compounds, the death rate, clinical symptoms and weight changes of the rats were observed, and hematological and biochemical tests on blood samples were performed. Then, the rats were sacrificed and the internal organs were visually examined to check any abnormal signs in the organs of chest and abdomen.

CO/C=C(/C(=O)OC)c1ccc(Cl)cc1COc1ccc(OCCOC)cc1 [Compound No. 274, (E)-methyl-2-(2-((4-(2-methoxyethoxy)phenoxy)methyl)-4-chlorophenyl)-3-methoxyacrylate]
inhibition at 0.3 µM ([1]; 192 h, 0.3 μM, 8 days culture with M-CSF and RANKL): 100% | inhibition at 1 µM ([1]; 192 h, 1.0 μM, 8 days culture with M-CSF and RANKL): 100% | inhibition at 3 µM ([1]; 192 h, 3.0 μM, 8 days culture with M-CSF and RANKL): 100% | Reduction (%) of the resorption pit area of osteoclasts (osteoclasts; 0.3 uM): 100% | Reduction (%) of the resorption pit area of osteoclasts (osteoclasts; 1 uM): 100% | Reduction (%) of the resorption pit area of osteoclasts (osteoclasts; 3 uM): 100% | LD50 (rats; PO): 460 mg/kg body weight | LD50 (rats; SC): 11 mg/kg body weight

CO/C=C(/C(=O)OC)c1ccccc1COc1cccc(N2CCCCC2)c1 [Compound No. 388, (E)-methyl-2-[2-((3-(piperidin-1-yl)phenoxy)methyl)phenyl]-3-methoxyacrylate]
inhibition at 0.1 µM ([1]; 0.1 μM (Table 4b)): 0% | inhibition at 0.3 µM ([1]; 0.3 μM (Table 4b)): 99% | inhibition at 1 µM ([1]; 1 μM (Table 4b)): 100% | inhibition at 3 µM ([1]; 3 μM (Table 4b)): 100% | LD50 (rats; PO): 110-130 mg/kg body weight
